# Patent EP0014223A1, “Quaternary aminoacetic anilides, herbicidal compositions containing them and method for influencing plant growth” (CIBA-GEIGY AG, priority 1979, dated 1980)
# Read-outs that look alike come from different tables or passages of the source.
# Experiments:
# [1] = Solubility of the product; type: physicochemical
# Method: (§1) 14,3 g (0,06 mole) of pyrrolidinoacetic acid 3-chloro-anilide are dissolved in 50 ml of ethyl acetate and then 9,4 g (0,078 mole) of allyl bromide are added. The reaction mixture is refluxed for 3 hours and the quaternised end product initially separates out as an oil which chrystallises after a brief time.After filtration with suction, washing with ethyl acetate and drying in vacuo at 50°C, 21,5 g (99,5% of theory) of the quaternary allyl pyrrolidino bromide of the formula [drawing 3] are obtained. Meting point: 144-147°C. The product is colourless, soluble in water (3,7%) and methanol (30%) and stable against hydrolysis in all pH-ranges from 3 to 10.
# [2] = Stability against hydrolysis; type: physicochemical; details: all pH-ranges from 3 to 10
# Method: as §1
# [3] = tested on: Soya plants of the variety "Hark"; test: Inhibition of the vegetative growth and yield increase of soya plants; type: in vivo; details: for Inhibition rating: 5-trifoliate leaf stage, 4 weeks after application, linear rating 1-9; for % increase of pods A (number of pods) / % increase of pods B (weight of pods): versus untreated control plants
# Method: Soya plants of the variety "Hark" were reared in earthenware pots and sprayed at the 5-trifoliate leaf stage with aqueous preparations of the active substance of the Example. The active substance concentrations in the spray broth were 500, 100 and 50 ppm respectively. The plant growth was evaluated 4 weeks after application in accordance with the following linear rating: • 1 = strong inhibition (no growth from the time of application) • 9 = no inhibition (growth as untreated controls)
# The yield increase was evaluated at the sime time in percent increase of the pods when compared with the yield of pods obtained with untreated control plants.
# Value A expresses the % increase in number of pods Value B express the % increase in weight of pods.
# [4] = tested on: Chrysanthemum variety "Aglow"; test: Biological tests on chrysanthemums, height reduction and delay in flowering; type: in vivo; details: foliar spray
# Method: (§2) In these tests chrysanthemum varieties were used which, on account of their strong growth, can only be reared as pot plants in combination with growth inhibitors.
# (§3) About 25 days after potting (14 days after pinching) the plants were sprayed with aqueous preparations of the active substance of the Example and with Alar (known inhibitior for comparison). The growth in height of the plants was measured after three different periods (see table) and the growth inhibition is expressed in percent of the height measured on untreated plants (check = 0% reduction).
# (§4) The delay in flowering was evaluated as follows: • ^* = 3-4 days delay DAA = Days after application • ^** = 4-7 days delay
# [5] = tested on: Chrysanthemum variety "Golden Anne"; test: as above; type: in vivo; details: foliar spray
# Method: as §2, §3, §4
# [6] = tested on: Chrysanthemum variety "Regal Anne"; test: as above; type: in vivo
# Method: as §2, §3, §4
# [7] = tested on: Chrysanthemum variety "Wedgewood"; test: as above; type: in vivo; details: foliar spray
# Method: as §2, §3, §4
# chrysanthemum varieties = test: Biological tests on chrysanthemums, summary over all varieties; type: in vivo; details: depending on the variety; in sufficient water to wet all the foliage
# Method: as §2, §3
# Depending on the variety the optimal growth inhibition (20 to 35%) was obtained with rates between 125-250 ppm of the active ingredient of the Example in sufficient water to wet all the foliage. With one variety a soil drench application was also performed.
# chrysanthemums = test: Trials under practical conditions on chrysanthemums; type: in vivo; details: independent of environmental conditions
# Description: This inhibition is independent of environmental conditions (e.g. it is not light-dependent). Depending on the applied rate, any desired degree of growth inhibition can be obtained.
# [8] = tested on: Chrysanthemum variety "Regal Anne"; test: Biological tests on chrysanthemums, height reduction and delay in flowering; type: in vivo; details: Soil drench, 250 ppm
smiles,measurement,setting,value
C=CC[N+]1(CC(=O)Nc2cccc(Cl)c2)CCCC1 [B],solubility,"[1]; methanol, organic solvent or mixture, read-out: soluble in methanol",300 mg/mL
same,solubility,"[1]; water, read-out: soluble in water",37 mg/mL
same,stable against hydrolysis,[2],stable
same,Inhibition rating,[3]; 50 ppm spray,6
same,% increase of pods A (number of pods),[3]; 50ppm,45%
same,% increase of pods B (weight of pods),[3]; 50ppm,43%
same,Inhibition rating,[3]; 100 ppm spray,7
same,% increase of pods A (number of pods),[3]; 100 ppm,22%
same,% increase of pods B (weight of pods),[3]; 100 ppm,11%
same,Inhibition rating,[3]; 500 ppm spray,6
same,% increase of pods A (number of pods),[3]; 500 ppm,2%
same,% increase of pods B (weight of pods),[3]; 500 ppm,0%
same,delay in flowering,[4]; 125 ppm,* (^* = 3-4 days delay)
same,height reduction against check,"[4]; 125 ppm, 14 DAA",0%
same,height reduction against check,"[4]; 125 ppm, 32 DAA",0%
same,height reduction against check,"[4]; 125 ppm, 39 DAA",10%
same,delay in flowering,[4]; 250 ppm,* (^* = 3-4 days delay)
same,height reduction against check,"[4]; 250 ppm, 14 DAA",10%
same,height reduction against check,"[4]; 250 ppm, 32 DAA",10%
same,height reduction against check,"[4]; 250 ppm, 39 DAA",25%
same,height reduction against check,"[4]; 500 ppm, 14 DAA",15%
same,height reduction against check,"[4]; 500 ppm, 32 DAA",25%
same,height reduction against check,"[4]; 500 ppm, 39 DAA",30%
same,delay in flowering,[5]; 125 ppm,* (^* = 3-4 days delay)
same,height reduction against check,"[5]; 125 ppm, 14 DAA",10%
same,height reduction against check,"[5]; 125 ppm, 32 DAA",30%
same,height reduction against check,"[5]; 125 ppm, 39 DAA",20%
same,delay in flowering,[5]; 250 ppm,** (^** = 4-7 days delay)
same,height reduction against check,"[5]; 250 ppm, 14 DAA",20%
same,height reduction against check,"[5]; 250 ppm, 32 DAA",35%
same,height reduction against check,"[5]; 250 ppm, 39 DAA",30%
same,delay in flowering,[5]; 500 ppm,** (^** = 4-7 days delay)
same,height reduction against check,"[5]; 500 ppm, 14 DAA",30%
same,height reduction against check,"[5]; 500 ppm, 32 DAA",40%
same,height reduction against check,"[5]; 500 ppm, 39 DAA",35%
same,height reduction against check,"[6]; Soil drench, 250 ppm, 30 DAA",50%
same,height reduction against check,"[6]; Soil drench, 250 ppm, 55 DAA",50%
same,delay in flowering,"[6]; foliar spray, 125 ppm",* (^* = 3-4 days delay)
same,height reduction against check,"[6]; foliar spray, 125 ppm, 11 DAA",10%
same,height reduction against check,"[6]; foliar spray, 125 ppm, 30 DAA",25%
same,height reduction against check,"[6]; foliar spray, 125 ppm, 55 DAA",25%
same,delay in flowering,"[6]; foliar spray, 250 ppm",* (^* = 3-4 days delay)
same,height reduction against check,"[6]; foliar spray, 250 ppm, 11 DAA",25%
same,height reduction against check,"[6]; foliar spray, 250 ppm, 30 DAA",50%
same,height reduction against check,"[6]; foliar spray, 250 ppm, 55 DAA",25%
same,delay in flowering,"[6]; foliar spray, 500 ppm",* (^* = 3-4 days delay)
same,height reduction against check,"[6]; foliar spray, 500 ppm, 11 DAA",25%
same,height reduction against check,"[6]; foliar spray, 500 ppm, 30 DAA",60%
same,height reduction against check,"[6]; foliar spray, 500 ppm, 55 DAA",40%
same,delay in flowering,"[6]; foliar spray, 1000 ppm",* (^* = 3-4 days delay)
same,height reduction against check,"[6]; foliar spray, 1000 ppm, 11 DAA",25%
same,height reduction against check,"[6]; foliar spray, 1000 ppm, 30 DAA",60%
same,height reduction against check,"[6]; foliar spray, 1000 ppm, 55 DAA",40%
same,delay in flowering,"[6]; foliar spray, 2000 ppm",** (^** = 4-7 days delay)
same,height reduction against check,"[6]; foliar spray, 2000 ppm, 11 DAA",40%
same,height reduction against check,"[6]; foliar spray, 2000 ppm, 30 DAA",75%
same,height reduction against check,"[6]; foliar spray, 2000 ppm, 55 DAA",50%
same,delay in flowering,[7]; 125 ppm,* (^* = 3-4 days delay)
same,height reduction against check,"[7]; 125 ppm, 14 DAA",10%
same,height reduction against check,"[7]; 125 ppm, 32 DAA",10%
same,height reduction against check,"[7]; 125 ppm, 39 DAA",20%
same,delay in flowering,[7]; 250 ppm,* (^* = 3-4 days delay)
same,height reduction against check,"[7]; 250 ppm, 14 DAA",15%
same,height reduction against check,"[7]; 250 ppm, 32 DAA",15%
same,height reduction against check,"[7]; 250 ppm, 39 DAA",25%
same,delay in flowering,[7]; 500 ppm,* (^* = 3-4 days delay)
same,height reduction against check,"[7]; 500 ppm, 14 DAA",15%
same,height reduction against check,"[7]; 500 ppm, 32 DAA",25%
same,height reduction against check,"[7]; 500 ppm, 39 DAA",25%
same,rates giving the optimal growth inhibition (20 to 35%),chrysanthemum varieties,125-250 ppm
same,inhibition of internode growth,chrysanthemums,uniform and reproducible inhibition of internode growth
same,delay in flowering,[8],** (^** = 4-7 days delay)
same,height reduction against check,[8]; 11 DAA,25%
"CN(C)NC(=O)CCC(=O)O [A, succinic acid mono-N-dimethylhydrazide, reference compound]",delay in flowering,[4]; 3400 ppm,* (^* = 3-4 days delay)
same,height reduction against check,"[4]; 3400 ppm, 14 DAA",20%
same,height reduction against check,"[4]; 3400 ppm, 32 DAA",30%
same,height reduction against check,"[4]; 3400 ppm, 39 DAA",25%
same,delay in flowering,[5]; 3400 ppm,* (^* = 3-4 days delay)
same,height reduction against check,"[5]; 3400 ppm, 14 DAA",30%
same,height reduction against check,"[5]; 3400 ppm, 32 DAA",30%
same,height reduction against check,"[5]; 3400 ppm, 39 DAA",25%
same,delay in flowering,"[6]; foliar spray, 3400 ppm",* (^* = 3-4 days delay)
same,height reduction against check,"[6]; foliar spray, 3400 ppm, 11 DAA",40%
same,height reduction against check,"[6]; foliar spray, 3400 ppm, 30 DAA",40%
same,height reduction against check,"[6]; foliar spray, 3400 ppm, 55 DAA",25%
same,delay in flowering,[7]; 3400 ppm,* (^* = 3-4 days delay)
same,height reduction against check,"[7]; 3400 ppm, 14 DAA",30%
same,height reduction against check,"[7]; 3400 ppm, 32 DAA",30%
same,height reduction against check,"[7]; 3400 ppm, 39 DAA",25%
